Reference: publication PMC3547328 (Chemical communications (Cambridge, England), 2013)

Experiments:
[1] = Absorption and fluorescence; type: physicochemical
[2] = Fluorescence lifetime measurements; type: physicochemical; conditions: free and peptide incorporated forms
CaM = conditions: cited from earlier work
[3] = typical range; depends on solvent exposure and quenching; cited from earlier work
[4] = Fluorescence spectra of NAAzAP in different solvents; type: physicochemical; conditions: upon lowering solvent polarity, λex 342 nm
[5] = Collisional quenching experiments on NAAzAP with free amino acids and imidazole; type: physicochemical

For `N[C@@H](Cc1ccc2cccccc1-2)C(=O)O` [AzAla, β-(1-Azulenyl)-L-Alanine], which extinction coefficient ([1]; S2-S0 transition) is on record?
Its extinction coefficient is ~ 4200 cm^−1M^−1.

What about the quantum yield ([1]; relative to tryptophan) of the same compound?
Its quantum yield is “comparable to those of tryptophan”.

And the apparent emission intensity ([1]; relative to tryptophan, narrower profile of the azulene emission)?
The apparent emission intensity was “nearly the same apparent emission intensity”.

And the fluorescence decay [2]?
The fluorescence decay was “simple monoexponential fluorescence decay”.

Which “affinity for CaM” value (CaM) does the source give for “Melittin: Melittin has strong affinity for CaM” here?
The value was “strong affinity for CaM”.

With `N[C@@H](Cc1c[nH]c2ccccc12)C(=O)O` [Tryptophan] as the compound, how does the “apparent Trp quantum yield (Φ)” value [3] read?
The value was 0.35 to 0.01.

Which results are given for `CCCNC(=O)C(Cc1ccc2cccccc1-2)NC(C)=O` (centres unmarked) [NAAzAP, N-Acetyl-(AzulylAlanine)-propylamide]?
red shift of fluorescence spectra [4]: 6 nm; fluorescence quenching ([5]; quencher: free methionine): quenched; fluorescence quenching ([5]; quencher: imidazole): quenched; fluorescence quenching ([5]; quencher: tryptophan, same conditions): not by tyrosine or tryptophan; fluorescence quenching ([5]; quencher: tyrosine, same conditions): not by tyrosine or tryptophan
